Data: US10787650B2, “Artificial bioluminescent enzymes” (NATIONAL INSTITUTE OF ADVANCED INDUSTRIAL SCIENCE AND …, priority 2015, dated 2020)

Assays:
ALuc16 [1] = test: Metal cation-driven variance of bioluminescence spectra of ALuc16; type: biochemical; details: 100 μg/mL cation
Procedure: The corresponding bioluminescence spectra (FIG. 6(B)) were also measured using the same method as that of FIG. 6(A). In a 200 μL PCR tube, 50 μL of the mixture of ALuc16 and a metal cation (Ca(II), Fe(III), Ni(II), Zn(II), Mg(II), or Cr(VI); concentration: 100 μg/mL) in the metal-cation-free Tris-HCl buffer (Solution A) was further mixed with 10 μL of an nCTZ solution (Solution B). The tube was immediately moved into the chamber of a precision spectrophotometer (AB-1850, ATTO) (FIG. 6(B)), and the consequent spectra were taken in an integration of 30 seconds.

ALuc16 [2] = test: Cation-driven long-term stability of optical intensities of ALuc16; type: biochemical
Procedure: The long-term stability of optical intensities was estimated by the same method as that of FIG. 6(A) (FIG. 8(A)). The microplate was placed in the chamber of LAS-4000, and the optical intensities were monitored every 5 minutes, after substrate injection, for a duration of 60 minutes.

molecular strain sensor = test: Metal ion effects on luminescence of the purified molecular strain sensor; type: biochemical; details: within 1 minute after substrate addition
Procedure: For this experiment, the concentration of the purified molecular strain sensor was adjusted to 0.1 mg/mL by dilution in a Tris-HCl buffer (pH 8.2). Rapamycin was added to the molecular strain sensor and the final concentration was adjusted to […]. After that, the resultant was diluted with metal ion-containing Tris-HCl buffer (pH 8.2) to make a 0.01 mg/mL molecular strain sensor solution. At this time, the final concentration of the metal ion added was 10 μg/mL. The solution was transferred to a 96-well microplate, and, while the substrate solution was added from a microinjector, luminescence intensities were measured with or without a metal ion.
The luminescence stability of the luminescent probe dependent on different metal ion concentrations was studied by a similar technique (FIG. 23). The substrate solution was added from a microinjector in the same manner as above, and then changes in luminescence intensity over 1 minute were measured.

Fridericia luciferase = details: cited from earlier work
[3] = Luminescence activity of novel artificial bioluminescent enzymes (COS-7 cell lysate); type: biochemical, African green monkey; details: COS-7 lysate, native coelenterazine
Procedure: African green monkey kidney-derived COS-7 cells were cultured using a 96-well microplate. The COS-7 cells were grown until occupying 90% of the bottom-surface area of the culture plate, and, as shown in FIG. 19 and FIG. 20, were each transiently transfected with a pcDNA 3.1(+) vector (Invitrogen) encoding each luminescent enzyme with a lipofection reagent (TransIT-LT1, Mirus). After that, the cells were further cultured for about 1 day. After the culture, cell lysates were prepared using a cell lysis agent (Lysis buffer, Promega), and 5 μL each of the cell lysates was taken from each well and transferred to a 96-well microplate for measurement. An assay buffer (50 μL) containing native coelenterazine was simultaneously added to each well using a multichannel pipette. Immediately after the addition of the assay buffer, the microplate was moved into the black box of an image analyzer (LAS-4000, FujiFilm), and luminescence images were measured with a CCD camera (FIG. 19 and FIG. 20).

[4] = Enzymatic activity confirmation: temporal stability in luminescence; type: biochemical, African monkey; details: compared to existing ALuc or conventional copepod luciferases
Procedure: The enzymatic activity of ALuc may be examined according to the following method. First, using a known lipid reagent for gene introduction, an expression vector encoding ALuc is introduced into African monkey-derived COS-7 cells. As a control, an expression vector having a known GLuc without any mutation is also introduced into the cells in the same manner. At a predetermined time (from 10 hours to 20 hours, for example, 16 hours) after the introduction of the vector, a cell lysate is prepared using a known cell lysis reagent.
After that, the cell lysate is mixed with a known substrate solution containing coelenterazine, and its color intensity, temporal stability in luminescence, and the like are measured.
The luminescence intensity may be found by measuring the intensity at a specific wavelength using a conventional luminescence spectrophotometer after addition of a known substrate. By performing the measurement every minute, the temporal stability in luminescence can be evaluated based on the temporal change in luminescence. In order to measure a shift to a longer wavelength, scanning of the entire wavelength is required.

Q: Which results are given for [Ca+2].[Cl-].[Cl-] [Ca(II)]?
A: blue shift of the bioluminescence spectrum (ALuc16 [1]): 2 nm; effect on long-term stability of bioluminescence intensities (ALuc16 [2]; 60 minutes after substrate injection): prolonged the bioluminescence intensities in a concentration-dependent manner; optical intensity retained (ALuc16 [2]; after 60 minutes): 4%; initial optical intensity sustained (ALuc16 [2]; for 13 minutes after nCTZ injection): 60%; effect of increasing concentration on overall luminescence intensity (molecular strain sensor): reduces an overall luminescence intensity; effect of increasing concentration on S/N ratio (molecular strain sensor; with/without rapamycin): improves an S/N ratio; effect on activities of Fridericia luciferase (Fridericia luciferase): elevate

Q: For [Cl][Ni][Cl] [Ni(II)], which “red shift of the bioluminescence spectrum” value (ALuc16 [1]) is on record?
A: 4 nm

B1: ALuc45: artificial luciferase, SEQ ID NO: 5 (protein)
chain: MMGIKVLFALVCLALVQAKPTEDEDEDDIVDVVGNFWAIGVDNDRDFTISADRGKLPGKKLPKEVLIEIEANAKKAGCTRGCLICLSKIKCTAKMKKWLPGRCHSYEGDKDTGQGGIGEPIVDAPEIPGFKDLTPMEQFIAQVDLCADCTTGCLKGLANVKCSALLKKWLPDRCASFADKIQKEVDNIKGLAGS
Q: Which “luminescence intensities as compared to conventional ALucs (e.g., ALuc16 and ALuc30)” value [3] does the source give for B1 here?
A: even stronger luminescence intensities

Q: And the luminescence stability [4]?
A: remarkably stable luminescence signal
